Test [1] addresses KRas G12C (Homo sapiens, UniProt P01116, C118S/C51S/C80L/G12C). As to the kind of experiment: KRas G12C Modification Assay (LCMS detection of covalent adduct). It counts as binding. To be noted: normalized percent of control, tested at 5 μM concentration for 3 hours. In short, it runs like this:
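Covalent modification was read by reverse-phase LC/MS of intact protein after compound exposure, each reaction stopped at its time point with 25 mM acetic acid. Unmodified-protein signal, taken as percent of total, was normalised to untreated protein and reported as POC.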

The subject of test [2] is NCI-H358 cells (express KRas G12C), Phospho-ERK. In words: Cellular inhibition of KRas G12C: Phospho-ERK in NCI-H358 cells. In kind it is cell-based. Conditions: pERK(Thr202/Tyr204) normalized with GAPDH, NCI-H358 cells, 3 hours, read-out: IC50. The essentials:
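IC50 derived by 4-parameter fit of GAPDH-normalized pERK(Thr202/Tyr204) signal, as percent of DMSO control. Signal came from in-cell immunodetection with infrared secondaries after 3 h compound exposure of KRas G12C NCI-H358 cells at 0.5% DMSO.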

Read-outs that look alike come from different tables or passages of the source.

What is called IC50 is the point on the concentration scale where inhibition reaches its midpoint. Take `C=CC(=O)N1CCN(c2nc(OCCN(C)C)nc3c2CCN(c2ccccc2C(F)(F)F)C3)CC1CC#N` (stereo not shown) [Example 279, 2-(1-acryloyl-4-(2-(2-(dimethylamino)ethoxy)-7-(2-(trifluoromethyl)phenyl)-5,6,7,8-tetrahydropyrido[3,4-d]pyrimidin-4-yl)piperazin-2-yl)acetonitrile]: the POC result in test [1] is “C (“C”>50% POC)”. Moreover, the IC50 in test [2] (Homo sapiens, NCI-H358, 3 h) lay in the range of 0.0001 to 1 µM.
As for `C=CC(=O)N1CCN(c2nc(OCCCN3C[C@H]4C[C@@H]3CO4)nc3c2CCN(c2ccccc2C(F)(F)F)C3)CC1CC#N` (stereo partly drawn) [Example 280, 2-(4-(2-(3-((1R,4R)-2-oxa-5-azabicyclo[2.2.1]heptan-5-yl)propoxy)-7-(2-(trifluoromethyl)phenyl)-5,6,7,8-tetrahydropyrido[3,4-d]pyrimidin-4-yl)-1-acryloylpiperazin-2-yl)acetonitrile], in test [1], the POC entry is “C (“C”>50% POC)”. Moreover, in test [2] (Homo sapiens), the half-inhibitory concentration (IC50) is 0.0001 to 1 µM.
`C=CC(=O)N1CCN(c2nc(OC[C@@H]3CCN(C)C3)nc3c2CCN(c2ccccc2C(F)(F)F)C3)CC1CC#N` (stereo partly drawn) [Example 281, 2-(1-acryloyl-4-(2-(((R)-1-methylpyrrolidin-3-yl)methoxy)-7-(2-(trifluoromethyl)phenyl)-5,6,7,8-tetrahydropyrido[3,4-d]pyrimidin-4-yl)piperazin-2-yl)acetonitrile]: the POC entry in test [1] was “C (“C”>50% POC)”. Moreover, in test [2] (Homo sapiens, NCI-H358, 3 h), the IC50 fell in the range of 0.0001 to 1 µM.
On the same counts, the results for `CC(C)=CC(=O)N1CCN(c2nc(OC[C@@H]3CCCN3C)nc3c2CCN(c2cccc4ccccc24)C3)CC1CC#N` (stereo partly drawn) [Example 282, 2-(1-(3-methylbut-2-enoyl)-4-(2-(((S)-1-methylpyrrolidin-2-yl)methoxy)-7-(naphthalen-1-yl)-5,6,7,8-tetrahydropyrido[3,4-d]pyrimidin-4-yl)piperazin-2-yl)acetonitrile] are “A (“A”≤25% POC)” and above 1 µM.
On the same counts, the results for `C=CC(=O)N1CCN(c2nc(OC[C@H]3CCCN3C)nc3c2CCN(c2ccccc2C(F)(F)F)C3)CC1CC#N` (stereo partly drawn) [Example 283, 2-(1-acryloyl-4-(2-(((R)-1-methylpyrrolidin-2-yl)methoxy)-7-(2-(trifluoromethyl)phenyl)-5,6,7,8-tetrahydropyrido[3,4-d]pyrimidin-4-yl)piperazin-2-yl)acetonitrile] are “C (“C”>50% POC)” and 0.0001 to 1 µM.
On the same counts, the results for `C=CC(=O)N1CCN(c2nc(OCCN(CC)CC)nc3c2CCN(c2ccccc2C(F)(F)F)C3)CC1CC#N` (stereo not shown) [Example 284, 2-(1-acryloyl-4-(2-(2-(diethylamino)ethoxy)-7-(2-(trifluoromethyl)phenyl)-5,6,7,8-tetrahydropyrido[3,4-d]pyrimidin-4-yl)piperazin-2-yl)acetonitrile] are “C (“C”>50% POC)” and 0.0001 to 1 µM.
Regarding `C=CC(=O)N1CCN(c2nc(OC[C@@H]3CCCN3C(C)C)nc3c2CCN(c2cccc4ccccc24)C3)CC1CC#N` (stereo partly drawn) [Example 285, 2-[4-[2-[[(2S)-1-isopropylpyrrolidin-2-yl]methoxy]-7-(1-naphthyl)-6,8-dihydro-5H-pyrido[3,4-d]pyrimidin-4-yl]-1-prop-2-enoyl-piperazin-2-yl]acetonitrile], the POC result in test [1] is “C (“C”>50% POC)”. In addition, in test [2] (Homo sapiens, NCI-H358, 3 h), the IC50 lay in the range of 0.0001 to 1 µM.
As to `C=CC(=O)N1CCN(c2nc(OC[C@@H]3CCCN3C)nc3c2CCN(c2cccc4ccc(Cl)cc24)C3)CC1CC#N` (stereo partly drawn) [Example 286, 2-(1-acryloyl-4-(7-(7-chloronaphthalen-1-yl)-2-(((S)-1-methylpyrrolidin-2-yl)methoxy)-5,6,7,8-tetrahydropyrido[3,4-d]pyrimidin-4-yl)piperazin-2-yl)acetonitrile], in test [1], the POC result was “C (“C”>50% POC)”. The IC50 in test [2] lay in the range of 0.0001 to 1 µM.
The like results for `C=CC(=O)N1CCN(c2nc(OC[C@@H]3CCCN3C)nc3c2CCN(c2cccc4c(F)cccc24)C3)CC1CC#N` (stereo partly drawn) [Example 287, 2-[4-[7-(5-fluoro-1-naphthyl)-2-[[(2S)-1-methylpyrrolidin-2-yl]methoxy]-6,8-dihydro-5H-pyrido[3,4-d]pyrimidin-4-yl]-1-prop-2-enoyl-piperazin-2-yl]acetonitrile] were, in that order, “C (“C”>50% POC)” and 0.0001 to 1 µM.
The like results for `C=CC(=O)N1CCN(c2nc(OC[C@@H]3CCCN3C)nc3c2CCN(c2cccc4ccc(OC)cc24)C3)CC1CC#N` (stereo partly drawn) [Example 288, 2-[4-[7-(7-methoxy-1-naphthyl)-2-[[(2S)-1-methylpyrrolidin-2-yl]methoxy]-6,8-dihydro-5H-pyrido[3,4-d]pyrimidin-4-yl]-1-prop-2-enoyl-piperazin-2-yl]acetonitrile] were, in that order, “A (“A”≤25% POC)” and above 1 µM.
The like results for `C=CC(=O)N1CCN(c2nc(OC[C@@H]3CCCN3C)nc3c2CCN(c2nccc4ccccc24)C3)CC1CC#N` (stereo partly drawn) [Example 289, 2-[4-[7-(1-isoquinolyl)-2-[[(2S)-1-methylpyrrolidin-2-yl]methoxy]-6,8-dihydro-5H-pyrido[3,4-d]pyrimidin-4-yl]-1-prop-2-enoyl-piperazin-2-yl]acetonitrile] were, in that order, “C (“C”>50% POC)” and above 1 µM.
In the case of `C=CC(=O)N1CCN(c2nc(OC[C@@H]3CCCN3C)nc3c2CCN(c2cccc4cc(F)ccc24)C3)CC1CC#N` (stereo partly drawn) [Example 290, 2-[4-[7-(6-fluoro-1-naphthyl)-2-[[(2S)-1-methylpyrrolidin-2-yl]methoxy]-6,8-dihydro-5H-pyrido[3,4-d]pyrimidin-4-yl]-1-prop-2-enoyl-piperazin-2-yl]acetonitrile], in test [1], the POC result is “C (“C”>50% POC)”. The IC50 in test [2] was in the range of 0.0001 to 1 µM.
On to `C=CC(=O)N1CCN(c2nc(OC[C@@H]3CCCN3C)nc3c2CCN(c2cncc4ccccc24)C3)CC1CC#N` (stereo partly drawn) [Example 291, 2-[4-[7-(4-isoquinolyl)-2-[[(2S)-1-methylpyrrolidin-2-yl]methoxy]-6,8-dihydro-5H-pyrido[3,4-d]pyrimidin-4-yl]-1-prop-2-enoyl-piperazin-2-yl]acetonitrile], for which, in test [1], the POC result was “C (“C”>50% POC)”. In test [2], the IC50 fell in the range of 0.0001 to 1 µM.
With `C=CC(=O)N1CCN(c2nc(OC[C@@H]3CCCN3C)nc3c2CCN(c2cccc4cnccc24)C3)CC1CC#N` (stereo partly drawn) [Example 292, 2-[4-[7-(5-isoquinolyl)-2-[[(2S)-1-methylpyrrolidin-2-yl]methoxy]-6,8-dihydro-5H-pyrido[3,4-d]pyrimidin-4-yl]-1-prop-2-enoyl-piperazin-2-yl]acetonitrile], the POC result in test [1] was “A (“A”≤25% POC)”. Further, the half-inhibitory concentration (IC50) in test [2] is above 1 µM.
On the same counts, the results for `C/C=C/C(=O)N1CCN(c2nc(OC[C@@H]3CCCN3C)nc3c2CCN(c2cccc4ccccc24)C3)CC1CC#N` (stereo partly drawn) [Example 293, 2-[1-[(E)-but-2-enoyl]-4-[2-[[(2S)-1-methylpyrrolidin-2-yl]methoxy]-7-(1-naphthyl)-6,8-dihydro-5H-pyrido[3,4-d]pyrimidin-4-yl]piperazin-2-yl]acetonitrile] are “C (“C”>50% POC)” and 0.0001 to 1 µM.
On the same counts, the results for `C=CC(=O)N1CCN(c2nc(OC[C@@H]3CCCN3C)nc3c2CCN(c2cccc4ncccc24)C3)CC1CC#N` (stereo partly drawn) [Example 294, 2-[4-[2-[[(2S)-1-methylpyrrolidin-2-yl]methoxy]-7-(5-quinolyl)-6,8-dihydro-5H-pyrido[3,4-d]pyrimidin-4-yl]-1-prop-2-enoyl-piperazin-2-yl]acetonitrile] are “C (“C”>50% POC)” and above 1 µM.
`C=CC(=O)N1CCN(c2nc(OC[C@@H]3CCCN3C)nc3c2CCN(c2ccnc4ccccc24)C3)CC1CC#N` (stereo partly drawn) [Example 295, 2-[4-[2-[[(2S)-1-methylpyrrolidin-2-yl]methoxy]-7-(4-quinolyl)-6,8-dihydro-5H-pyrido[3,4-d]pyrimidin-4-yl]-1-prop-2-enoyl-piperazin-2-yl]acetonitrile]: in test [1] (5 µM), the POC result is “A (“A”≤25% POC)”. Besides, the IC50 in test [2] was above 1 µM.
Consider `C=CC(=O)N1CCN(c2nc(OCCN(C)C)nc3c2CCN(c2ccccc2C(F)(F)F)C3)CC1CC#N` (stereo not shown) [Example 296, 2-[4-[2-[2-(dimethylamino)ethoxy]-7-[2-(trifluoromethyl)phenyl]-6,8-dihydro-5H-pyrido[3,4-d]pyrimidin-4-yl]-1-prop-2-enoyl-piperazin-2-yl]acetonitrile], for which the POC entry in test [1] was “C (“C”>50% POC)”. Also, the IC50 in test [2] lay within 0.0001 to 1 µM.
On the same counts, the results for `C=CC(=O)N1CCN(c2nc(OCCCN3C[C@H]4C[C@@H]3CO4)nc3c2CCN(c2ccccc2C(F)(F)F)C3)CC1CC#N` (stereo partly drawn) [Example 297, 2-[4-[2-[3-[(1R,4R)-2-oxa-5-azabicyclo[2.2.1]heptan-5-yl]propoxy]-7-[2-(trifluoromethyl)phenyl]-6,8-dihydro-5H-pyrido[3,4-d]pyrimidin-4-yl]-1-prop-2-enoyl-piperazin-2-yl]acetonitrile] are “C (“C”>50% POC)” and 0.0001 to 1 µM.
The like results for `C=CC(=O)N1CCN(c2nc(OC[C@@H]3CCN(C)C3)nc3c2CCN(c2ccccc2C(F)(F)F)C3)CC1CC#N` (stereo partly drawn) [Example 298, 2-(1-acryloyl-4-(2-(((R)-1-methylpyrrolidin-3-yl)methoxy)-7-(2-(trifluoromethyl)phenyl)-5,6,7,8-tetrahydropyrido[3,4-d]pyrimidin-4-yl)piperazin-2-yl)acetonitrile] were, in that order, “C (“C”>50% POC)” and 0.0001 to 1 µM.

These data come from patent US10125134B2 (Mirati Therapeutics, Inc., priority 2016, dated 2018).
